Experimental data taken from US20130217664A1, “NOVEL COMPOUNDS USEFUL FOR THE TREATMENT OF DEGENERATIVE AND INFLAMMATORY DISEASES” (priority 2012, published 2013).

Tests used:
Format in all cases: biochemical
human JAK1 = target: T1, human JAK1 (Homo sapiens, UniProt P23458); experiment: JAK1 inhibition assay (polyGT substrate / Ulight-JAK1 peptide); details: recombinant human JAK1 catalytic domain; polyGT or Ulight-JAK1 peptide assay
T1 construct: catalytic domain, amino acids 866-1154; catalog number PV4774; purchased Invitrogen PV4774
How it was run: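 Signal scaled between vehicle and 10 μM staurosporine. Radiometric polyGT reactions ran 45 min at 30 °C, counted after phosphoric-acid stop. Ulight peptide reactions ran 60 min at room temperature, fluorescence read after adding Eu-PT66 detection mix with EDTA.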

human JAK2 = target: T2, human JAK2 (Homo sapiens, UniProt O60674); experiment: JAK2 inhibition assay (polyGT substrate / Ulight-JAK1 peptide); details: recombinant human JAK2 catalytic domain; polyGT or Ulight-JAK1 peptide assay
T2 construct: catalytic domain (amino acids 808-1132; catalog number PV4210); GST; purchased Invitrogen PV4210
Procedure: 1.2 JAK2 Inhibition Assay
1.2.1 JAK2 Assay polyGT Substrate
0.025 mU of JAK2 is incubated with 2.5 μg polyGT substrate (Sigma catalog number P0275) in kinase reaction buffer (5 mM MOPS pH 7.5, 9 mM MgAc, 0.3 mM EDTA, 0.06% Brij and 0.6 mM DTT, 1 μM non-radioactive ATP, 0.25 μCi ^33P-gamma-ATP (GE Healthcare, catalog number AH9968) final concentrations) with or without 5 μL containing test compound or vehicle (DMSO, 1% final concentration), in a total volume of 25 μL, in a polypropylene 96-well plate (Greiner, V-bottom). After 90 min at 30° C., reactions are stopped by adding of 25 μL/well of 150 mM phosphoric acid. […] Plates are washed 6 times with 300 μL per well of a 75 mM phosphoric acid solution and the bottom of the plates is sealed. 40 μL/well of Microscint-20 is added, the top of the plates is sealed and readout is performed using the Topcount (Perkin Elmer). Kinase activity is calculated by subtracting counts per min (cpm) obtained in the presence of a positive control inhibitor (10 μM staurosporine) from cpm obtained in the presence of vehicle. The ability of a test compound to inhibit this activity is determined as:
(§1) Percentage inhibition=((cpm determined for sample with test compound present−cpm determined for sample with positive control inhibitor)divided by(cpm determined in the presence of vehicle−cpm determined for sample with positive control inhibitor))*100.
Dose dilution series are prepared for the compounds enabling the testing of dose-response effects in the JAK2 assay and the calculation of the IC50 for each compound.
1.2.2 JAK2 Ulight-JAK1 Peptide Assay
After 60 min at room temperature, reactions were stopped by adding 20 μL/well of detection mixture (1× detection buffer (Perkin Elmer, catalog number CR97-100C), 0.5 nM Europium-anti-phosphotyrosine (PT66) (Perkin Elmer, catalog number AD0068), 10 mM EDTA). […] Kinase activity was calculated by subtracting relative fluorescence units (RFU) obtained in the presence of a positive control inhibitor (10 μM staurosporine) from RFU obtained in the presence of vehicle. The ability of a test compound to inhibit this activity was determined as:
Percentage inhibition=((RFU determined for sample with test compound present−RFU determined for sample with positive control inhibitor)divided by(RFU determined in the presence of vehicle−RFU determined for sample with positive control inhibitor))*100.
Dose dilution series are prepared for compound enabling the testing of dose-response effects in the JAK2 assay and the calculation of the IC50 for the compound. Each compound is routinely tested at concentration of 20 μM followed by a 1/5 serial dilution, 10 points in a final concentration of 1% DMSO. […] The data are expressed as the average IC50 from the assays±standard error of the mean.

human JAK3 = target: T3, human JAK3 (Homo sapiens, UniProt P52333); experiment: JAK3 inhibition assay; details: recombinant human JAK3 catalytic domain; polyGT substrate
T3 construct: catalytic domain (amino acids 781-1124; catalog number PV3855); purchased Invitrogen PV3855
Procedure: 1.3 JAK3 Inhibition Assay
0.5 ng JAK3 protein was incubated with 2.5 μg polyGT substrate (Sigma catalog number P0275) in kinase reaction buffer (25 mM Tris pH 7.5, 0.5 mM EGTA, 10 mM MgCl2, 2.5 mM DTT, 0.5 mM Na3VO4, 5 mM b-glycerolphosphate, 0.01% Triton X-100, 1 μM non-radioactive ATP, 0.25 μCi 33P-gamma-ATP (GE Healthcare, catalog number AH9968) final concentrations) with or without 5 μL containing test compound or vehicle (DMSO, 1% final concentration), in a total volume of 25 μL, in a polypropylene 96-well plate (Greiner, V-bottom). After 45 min at 30° C., reactions were stopped by adding 25 μL/well of 150 mM phosphoric acid. […] Plates were washed 6 times with 300 μL per well of a 75 mM phosphoric acid solution and the bottom of the plates was sealed. 40 μL/well of Microscint-20 was added, the top of the plates was sealed and readout was performed using the Topcount (Perkin Elmer). Kinase activity was calculated by subtracting counts per min (cpm) obtained in the presence of a positive control inhibitor (10 μM staurosporine) from cpm obtained in the presence of vehicle. The ability of a test compound to inhibit this activity was determined as:
as §1
Dose dilution series were prepared for the compounds enabling the testing of dose-response effects in the JAK3 assay and the calculation of the IC50 for each compound. Each compound was routinely tested at concentration of 20 μM followed by a 1/5 serial dilution, 10 points in a final concentration of 1% DMSO.

human TYK2 = target: T4, human TYK2 (Homo sapiens, UniProt P29597); experiment: TYK2 inhibition assay; details: recombinant human TYK2 catalytic domain, polyGT substrate
T4 construct: catalytic domain (amino acids 871-1187; catalog number 08-147); purchased Carna Biosciences 08-147
T4 sequence (P29597 871-1187): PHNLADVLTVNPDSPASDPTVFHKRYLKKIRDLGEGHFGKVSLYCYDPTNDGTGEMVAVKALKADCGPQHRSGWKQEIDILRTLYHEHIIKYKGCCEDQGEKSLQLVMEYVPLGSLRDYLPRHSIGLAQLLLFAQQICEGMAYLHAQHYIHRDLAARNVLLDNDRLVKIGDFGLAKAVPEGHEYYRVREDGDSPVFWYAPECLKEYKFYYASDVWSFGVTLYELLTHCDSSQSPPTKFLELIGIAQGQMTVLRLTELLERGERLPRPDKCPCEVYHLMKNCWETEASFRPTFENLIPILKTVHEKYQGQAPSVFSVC
Procedure: 1.4 TYK2 Inhibition Assay
After 90 min at 30° C., reactions were stopped by adding 25 μL/well of 150 mM phosphoric acid. […] Plates were washed 6 times with 300 μL per well of a 75 mM phosphoric acid solution and the bottom of the plates was sealed. 40 μL/well of Microscint-20 was added, the top of the plates was sealed and readout was performed using the Topcount (Perkin Elmer). Kinase activity was calculated by subtracting counts per min (cpm) obtained in the presence of a positive control inhibitor (10 μM staurosporine) from cpm obtained in the presence of vehicle. The ability of a test compound to inhibit this activity was determined as:
as §1
Dose dilution series were prepared for the compounds enabling the testing of dose-response effects in the TYK2 assay and the calculation of the IC50 for each compound.

T2 sequence (O60674 808-1132): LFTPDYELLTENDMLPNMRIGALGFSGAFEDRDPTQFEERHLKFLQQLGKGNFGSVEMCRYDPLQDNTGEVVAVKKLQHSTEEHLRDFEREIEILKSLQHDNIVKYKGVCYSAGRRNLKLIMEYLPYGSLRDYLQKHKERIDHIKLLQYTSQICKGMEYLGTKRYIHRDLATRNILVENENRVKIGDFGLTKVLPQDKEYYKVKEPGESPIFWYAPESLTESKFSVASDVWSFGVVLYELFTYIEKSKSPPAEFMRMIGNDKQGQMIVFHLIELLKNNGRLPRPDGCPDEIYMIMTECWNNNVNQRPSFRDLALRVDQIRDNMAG
T3 sequence (P52333 781-1124): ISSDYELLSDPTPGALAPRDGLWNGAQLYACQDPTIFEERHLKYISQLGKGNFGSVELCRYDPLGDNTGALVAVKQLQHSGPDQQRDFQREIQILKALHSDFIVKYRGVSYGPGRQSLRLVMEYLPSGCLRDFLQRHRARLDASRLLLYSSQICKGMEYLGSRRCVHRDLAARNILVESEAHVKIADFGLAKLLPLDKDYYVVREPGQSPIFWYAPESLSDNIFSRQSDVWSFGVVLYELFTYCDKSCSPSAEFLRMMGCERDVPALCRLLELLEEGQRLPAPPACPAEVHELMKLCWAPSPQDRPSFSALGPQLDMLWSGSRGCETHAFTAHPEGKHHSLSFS
T1 sequence (P23458 866-1154): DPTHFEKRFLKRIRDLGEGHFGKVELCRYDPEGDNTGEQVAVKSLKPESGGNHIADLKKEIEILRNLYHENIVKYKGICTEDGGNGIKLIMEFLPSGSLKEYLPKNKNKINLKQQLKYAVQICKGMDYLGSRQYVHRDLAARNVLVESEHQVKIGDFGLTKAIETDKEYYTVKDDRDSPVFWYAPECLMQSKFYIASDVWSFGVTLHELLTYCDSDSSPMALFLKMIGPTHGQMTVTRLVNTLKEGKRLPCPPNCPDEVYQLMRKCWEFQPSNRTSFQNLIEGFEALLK

Row | Compound | IC50 (human JAK1) [nM] | IC50 (human JAK2) [nM] | IC50 (human JAK3) [nM] | IC50 (human TYK2) [nM]
1 | Cc1cc(OCc2ccc(C#N)nc2)ccc1N(C)c1cc2c(cn1)ncn2C [Compound 89, 5-((3-methyl-4-(methyl(1-methyl-1H-imidazo[4,5-c]pyridin-6-yl)amino)phenoxy)methyl) picolinonitrile] | 101 to 500 | > 1000 | > 1000 | > 1000
2 | Cc1ccc(OCc2ccc(C#N)nc2)cc1N(C)c1cc2c(cn1)ncn2C [Compound 92, 5-((4-methyl-3-(methyl(1-methyl-1H-imidazo[4,5-c]pyridin-6-yl)amino)phenoxy)methyl) picolinonitrile] | 0.01 to 100 | > 1000 | > 1000 | > 1000
3 | CCc1cc(C(=O)N(C)C)ccc1N(C)c1cc2c(cn1)ncn2C [Compound 118, 3-ethyl-N,N-dimethyl-4-(methyl(1-methyl-1H-imidazo[4,5-c]pyridin-6-yl)amino)benzamide] | 101 to 500 | > 1000 |  | 
4 | CCc1ccc(COC)cc1N(C)c1cc2c(cn1)ncn2C [Compound 122, N-(2-Ethyl-5-(methoxymethyl)phenyl)-N,1-dimethyl-1H-imidazo[4,5-c]pyridin-6-amine] | 101 to 500 | > 1000 |  | 
5 | CCc1ccc(C(=O)Nc2cccnc2)cc1N(C)c1cc2c(cn1)ncn2C [Compound 124, 4-ethyl-3-(methyl(1-methyl-1H-imidazo[4,5-c]pyridin-6-yl)amino)-N-(pyridin-3-yl)benzamide] | 101 to 500 | > 1000 |  | 
6 | CCc1ccc(C(=O)NCc2ccccn2)cc1N(C)c1cc2c(cn1)ncn2C [Compound 125, 4-ethyl-3-(methyl(1-methyl-1H-imidazo[4,5-c]pyridin-6-yl)amino)-N-(pyridin-2-ylmethyl)benzamide] | 101 to 500 | > 1000 |  | 
7 | CCc1ccc(C(=O)NC)cc1N(C)c1cc2c(cn1)ncn2C [Compound 128, 4-ethyl-N-methyl-3-(methyl(1-methyl-1H-imidazo[4,5-c]pyridin-6-yl)amino)benzamide] | 101 to 500 | > 1000 |  | 
8 | COc1ccc(Cc2cc3c(cn2)ncn3C)cc1 [Compound 275, 6-(4-methoxybenzyl)-1-methyl-1H-imidazo[4,5-c]pyridine] | > 1000 | > 1000 |  | 
9 | CCc1ccccc1Oc1cc2c(cn1)ncn2C [Compound 298, 6-(2-Ethyl-phenoxy)-1-methyl-1H-imidazo[4,5-c]pyridine] | 501 to 1000 | > 1000 |  | 
10 | CCc1ccccc1N(CCC#N)c1cc2c(cn1)ncn2C [Compound 464, 3-((2-ethylphenyl)(1-methyl-1H-imidazo[4,5-c]pyridin-6-yl)amino)propanenitrile] |  | > 1000 | > 1000 | > 1000

The next lines start with the values.

Row | IC50 (human JAK1) [nM] | IC50 (human JAK2) [nM] | IC50 (human JAK3) [nM] | IC50 (human TYK2) [nM] | Compound
11 | 101 to 500 | > 1000 | > 1000 | > 1000 | CN(c1ccc(OC(F)(F)F)cc1)c1cc2c(cn1)ncn2C [Compound 1, N,1-dimethyl-N-(4-(trifluoromethoxy)phenyl)-1H-imidazo[4,5-c]pyridin-6-amine]
12 | 101 to 500 | > 1000 | > 1000 | > 1000 | COc1ccc(N(C)c2cc3c(cn2)ncn3C)cc1 [Compound 2, N-(4-methoxyphenyl)-N,1-dimethyl-1H-imidazo[4,5-c]pyridin-6-amine]
13 | 101 to 500 | > 1000 | > 1000 | 101 to 500 | CCN(c1ccc2occc2c1)c1cc2c(cn1)ncn2C [Compound 4, N-(benzofuran-5-yl)-N-ethyl-1-methyl-1H-imidazo[4,5-c]pyridin-6-amine]
14 | 101 to 500 | > 1000 | > 1000 | 501 to 1000 | CCN(c1ccc2c(cnn2C)c1)c1cc2c(cn1)ncn2C [Compound 5, N-ethyl-1-methyl-N-(1-methyl-1H-indazol-5-yl)-1H-imidazo[4,5-c]pyridin-6-amine]
15 | 101 to 500 | > 1000 | > 1000 | > 1000 | Cc1cc(OCc2cccnc2)ccc1N(C)c1cc2c(cn1)ncn2C [Compound 55, N,1-dimethyl-N-(2-methyl-4-(pyridin-3-ylmethoxy)phenyl)-1H-imidazo[4,5-c]pyridin-6-amine]
16 | 101 to 500 | > 1000 | > 1000 | 101 to 500 | CN(c1cc2c(cn1)ncn2C)c1ccccc1F [Compound 67, N-(2-fluorophenyl)-N,1-dimethyl-1H-imidazo[4,5-c]pyridin-6-amine]
17 | 101 to 500 | > 1000 | > 1000 | 501 to 1000 | CN(c1cc2c(cn1)ncn2C)c1ccccc1Cl [Compound 68, N-(2-Chlorophenyl)-N,1-dimethyl-1H-imidazo[4,5-c]pyridin-6-amine]
18 | 0.01 to 100 | 101 to 500 | > 1000 | 101 to 500 | CCc1cc(OCC(N)=O)ccc1N(C)c1cc2c(cn1)ncn2C [Compound 299]
19 | 0.01 to 100 | 101 to 500 | > 1000 | 501 to 1000 | CCc1cc(CNC2CCS(=O)(=O)C2)ccc1N(C)c1cc2c(cn1)ncn2C (centres unmarked) [Compound 300, {4-[(1,1-Dioxo-tetrahydro-thiophen-3-ylamino)-methyl]-2-ethyl-phenyl}-methyl-(1-methyl-1H-imidazo[4,5-c]pyridin-6-yl)-amine]
20 | 0.01 to 100 | 0.01 to 100 | 0.01 to 100 | 0.01 to 100 | CCc1cc(-c2ccc(C#N)s2)ncc1N(C)c1cc2c(cn1)ncn2C [Compound 301, 5-{4-Ethyl-5-[methyl-(1-methyl-1H-imidazo[4,5-c]pyridin-6-yl)-amino]-pyridin-2-yl}-thiophene-2-carbonitrile]
